Patent US20130183239A1, “ISOTOPIC CARBON CHOLINE ANALOGS” (IMPERIAL COLLEGE, priority 2010, published 2013)
Like-named read-outs stand apart in the source and are kept apart here.

Legend:
[1] = mouse, in vivo
Protocol: ^11C-choline, ^11C-D4-choline (˜18.5 MBq) and ^18F-D4-choline (˜3.7 MBq) were each injected via the tail vein of anaesthetized BALB/c nude mice. The mice were maintained under anesthesia and sacrificed by exsanguination via cardiac puncture at 2, 15, 30 or 60 min post radiotracer injection to obtain blood, plasma, heart, lung, liver, kidney and muscle. Tissue radioactivity was determined on a gamma counter (Cobra II Auto-Gamma counter, Packard Biosciences Co, Pangbourne, UK) and decay corrected. Data were expressed as percent injected dose per gram of tissue.
Time course biodistribution was performed in non-tumor-bearing male nude mice with ^11C-choline, ^11C-D4-choline and ^18F-D4-choline tracers.

[2] = mouse, in vivo; remark: listed apart in the source
Protocol: (§1) Radiolabeled metabolites from plasma and tissues were quantified using a method adapted from Smith G, Zhao Y, Leyton J, et al. Radiosynthesis and pre-clinical evaluation of [(18)F]fluoro-[1,2-(2)H(4)]choline. Nucl Med Biol. 2011; 38:39-51. Briefly, tumor-bearing mice under terminal anaesthesia were administered a bolus i.v. injection of one of the following radiotracers: ^11C-choline, ^11C-D4-choline (˜18.5 MBq) or ^18F-D4-choline (˜3.7 MBq), and sacrificed by exsanguination via cardiac puncture at 2, 15, 30 or 60 min post radiotracer injection. For automated radiosynthesis methodology, see Example 22. Tumor, kidney and liver samples were immediately snap-frozen in liquid nitrogen. Aliquots of heparinized blood were rapidly centrifuged (14000 g, 5 min, 4° C.) to obtain plasma. Plasma samples were subsequently snap-frozen in liquid nitrogen and kept on dry ice prior to analysis.
(§2) For analysis, samples were thawed and kept at 4° C. immediately before use. To ice cold plasma (200 μl) was added ice cold methanol (1.5 mL) and the resulting suspension centrifuged (14000 g; 4° C.; 3 min). The supernatant was then decanted and evaporated to dryness on a rotary evaporator (bath temperature, 40° C.), then resuspended in HPLC mobile phase (Solvent A: acetonitrile/water/ethanol/acetic acid/1.0 M ammonium acetate/0.1 M sodium phosphate [800/127/68/2/3/10]; 1.1 mL). Samples were filtered through a hydrophilic syringe filter (0.2 μm filter; Millex PTFE filter, Millipore, Mass., USA) and the sample (˜1 mL) then injected via a 1 mL sample loop onto the HPLC for analysis. Tissues were homogenized in ice-cold methanol (1.5 mL) using an Ultra-Turrax T-25 homogenizer (IKA Werke GmbH and Co. KG, Staufen, Germany) and subsequently treated as per plasma samples.
(§3) Samples were analyzed on an Agilent 1100 series HPLC system (Agilent Technologies, Santa Clara, Calif., USA), configured as described above, using the method of Leyton J, Smith G, Zhao Y, et al. [18F]fluoromethyl-[1, 2-2H4]-choline: a novel radiotracer for imaging choline metabolism in tumors by positron emission tomography. Cancer Res. 2009; 69:7721-7728. A μBondapak C18 HPLC column (Waters, Milford, Mass., USA; […]), stationary phase and a mobile phase comprising of Solvent A (vide supra) and Solvent B (acetonitrile/water/ethanol/acetic acid/1.0 M ammonium acetate/0.1 M sodium phosphate (400/400/68/44/88/10)), delivered at a flow rate of 3 mL/min were used for analyte separation. The gradient was set as follows: 0% B for 5 min; 0% to 100% B in 10 min; 100% B for 0.5 min; 100% to 0% B in 2 min; 0% B for 2.5 min.
(§4) A 2-tissue irreversible compartmental model was employed to fit the TACs, as has been previously established for ^11C-choline (Kenny L M, Contractor K B, Hinz R, et al. Reproducibility of [11C]choline-positron emission tomography and effect of trastuzumab. Clin Cancer Res. Aug. 15 2010; 16(16):4236-4245; and Sutinen E, Nurmi M, Roivainen A, et al. Kinetics of [(11)C]choline uptake in prostate cancer: a PET study. Eur J Nucl Med Mol. Imaging. March 2004; 31(3):317-324). An estimate of the whole blood TAC (wbTAC(t)) was derived from the PET image itself, as described above. […] Therefore it was fitted with a sum of 3 exponentials from the peak on and the fitted function was used as input function in the kinetic modeling (after metabolite correction, see below). […] The pf values were fitted to a sum of two exponentials with the constraint pf(t=0)=1 to obtain the function pf(t).

[3] = system: HCT116 tumors; conditions: mouse, in vivo
Protocol: as §1, §2, §3
^11C-choline, ^11C-D4-choline and ^18F-D4-choline metabolism were measured in HCT116 tumors (FIG. 22).

[4] = system: HCT116 tumors; conditions: HCT116 tumors, dynamic PET
Protocol: Dynamic ^11C-choline, ^11C-D4-choline and ^18F-D4-choline imaging scans were carried out on a dedicated small animal PET scanner (Siemens Inveon PET module, Siemens Medical Solutions USA, Inc., Malvem, Pa., USA) following a bolus i.v. injection in tumor-bearing mice of either ˜3.7 MBq for ^18F studies, or ˜18.5 MBq for ^11C. Dynamic scans were acquired in list mode format over 60 min. The acquired data were then sorted into 0.5 mm sinogram bins and 19 time frames for image reconstruction (4×15 s, 4×60 s, and 11×300 s), which was done by filtered back projection. For input function analysis, data were sorted into 25 time frames for image reconstruction (8×5 s, 1×20 s, 4×40 s, 1×80 s, and 11×300 s). The Siemens Inveon Research Workplace software was used for visualization of radiotracer uptake in the tumor; 30 to 60 min cumulative images of the dynamic data were employed to define 3-dimensional (3D) regions of interest (ROIs). Arterial input function was estimated as follows: a single voxel 3D ROI was manually drawn in the center of the heart cavity using 2 to 5 min cumulative images. Care was taken to minimize ROI overlap with the myocardium. The count densities were averaged for all ROIs at each time point to obtain a time versus radioactivity curve (TAC). Tumor TACs were normalized to injected dose, measured by a VDC-304 dose calibrator (Veenstra Instruments, Joure, The Netherlands), and expressed as percentage injected dose per mL tissue. The area under the TAC, calculated as the integral of % ID/mL from 0-60 min, and the normalized uptake of radiotracer at 60 min (% ID/mL60) were also used for comparisons.
as §4, with “pf(t). The parent whole blood TAC wbTACPAR(t) was then computed by multiplying wbTAC(t) and pf(t) and used as input function to estimate the parameters K1 (mL/cm^3/min), k2 (1/min), k3 (1/min) and Vb (unitless). The steady state net irreversible uptake rate constant Ki (mL/cm^3/min) was calculated from the estimated microparameters as K1k3/(k2+k3).” for “pf(t).”

[5] = system: human melanoma (A375), prostate (PC3-M) and colon (HCT116) cancer cell lines; experiment: In vitro 18F-D4-choline uptake in cancer cell lines; format: cell-based; conditions: hemicholinium-3 5 mM, 18F-D4-choline uptake, all three cell lines
Protocol: Uptake was measured in vehicle-treated (closed symbols) and hemicholinium-3-treated cells (5 mM; open symbols). Mean values+SEM are shown (n=3). Insert: representative western blot of choline kinase-α expression in the three cell lines. Actin was used as a loading control. Abbreviations: CKα, choline kinase alpha.
Cells (5×10^5) were plated into 6-well plates the night prior to analysis. On the day of the experiment, fresh growth medium, containing 40 μCi ^18F-D4-choline, was added to individual wells. Cell uptake was measured following incubation at 37° C. in a humidified atmosphere of 5% CO2 for 60 min. Plates were subsequently placed on ice, washed 3 times with ice-cold PBS and lysed in RIPA buffer (Thermo Fisher Scientific Inc., Rockford, Ill., USA; 1 mL, 10 min). […] Aliquots were snap-frozen and used for protein determination following radioactive decay using a BCA 96-well plate assay (Thermo Fisher Scientific Inc., Rockford, Ill., USA). Data were expressed as percent of total radioactivity per mg protein. For hemicholinium-3 treatment (5 mM; Sigma-Aldrich), cells were incubated with the compound 30 min prior to addition of radioactivity and for the duration of the uptake time course. […]

SMILES	increase in kidney retention compared to 11C-choline [1] [fold]	urinary excretion [1]	liver radioactivity as betaine [2] [%]	tumor betaine-to-phosphocholine metabolite ratio increase compared to 18F-D4-choline [3] [%]	tumor radioactivity corresponding to phosphocholine [3] [%]	tumor tracer kinetics between 30 and 60 min [4]	liver radioactivity as betaine ([2]; BALB/c nude, 2 min) [%]	plasma radioactivity in the form of betaine ([2]; BALB/c nude, 2 min) [%]	plasma radioactivity in the form of betaine ([2]; BALB/c nude, 15 min) [%]	tumor betaine-to-phosphocholine metabolite ratio increase compared to 18F-D4-choline ([3]; BALB/c nude) [%]	increase in the ratio of betaine:phophocholine in comparison to 18F-D4-choline ([3]; BALB/c nude, 15 min) [%]	tumor radioactivity corresponding to phosphocholine ([3]; BALB/c nude, 15 min) [%]	increase in the ratio of betaine:phophocholine in comparison to 18F-D4-choline ([3]; BALB/c nude, 60 min) [%]	tumor betaine radioactivity ([3]; BALB/c nude, 60 min) [%]	decrease in intracellular tracer radioactivity [5] [%]
[2H]C([2H])(O)C([2H])([2H])[N+](C)(C)[11CH3] [^11C-D4-choline, ^11C-[1,2-^2H4]choline]	1.8	trend towards increased urinary excretion	24.5±2.1	259	43.8±1.5	Slow wash-out of activity	–	–	–	–	–	–	–	–	–
C[N+](C)([11CH3])CCO [^11C-choline, reference compound]	–	–	–	–	–	gradual accumulation	49.2±7.7	12.1±2.6	78.6±4.4	388	388	30.5±4.0	230	28.1±2.9	–
C[N+]1(C)CCOC(O)(c2ccc(-c3ccc(C4(O)C[N+](C)(C)CCO4)cc3)cc2)C1.[Br-].[Br-] (stereo not shown) [hemicholinium-3, reference compound]	–	–	–	–	–	–	–	–	–	–	–	–	–	–	> 90
